The source made the active and inactive calls. No cut-off for these calls is given here.
Columns and labels:
MCF7 [1] = assay: Cytotoxicity against human MCF7 cells assessed as inhibition of cell survival at 0.5 uM after 72 hrs by MTT assay relative to control; type: functional; settings: MCF7, 72 h
[2] = Cytotoxicity against human H460 cells assessed as inhibition of cell survival at 0.5 uM after 72 hrs by MTT assay relative to control; type: functional; settings: NCI-H460, 72 h
[3] = Cytotoxicity against human KB-3-1 cells after 72 hrs by MTT assay; type: functional, cell-based; settings: KB 3-1, 72 h
MCF7 [4] = assay: Cytotoxicity against human MCF7 cells after 72 hrs by MTT assay; type: functional, cell-based; settings: MCF7, 72 h
HEK293 [5] = assay: Cytotoxicity against human HEK293 cells assessed as inhibition of cell survival at 0.5 uM after 72 hrs by MTT assay relative to control; type: functional; settings: HEK293, 72 h
HEK293 [6] = assay: Cytotoxicity against human HEK293 cells after 72 hrs by MTT assay; type: functional, cell-based; settings: HEK293, 72 h
[7] = Cytotoxicity against human H460 cells after 72 hrs by MTT assay; type: functional, cell-based; settings: NCI-H460, 72 h
KB 3-1 = assay: Cytotoxicity against human KB-3-1 cells assessed as inhibition of cell survival at 5 to 15 uM after 72 hrs by MTT assay relative to control; type: functional, cell-based
MCF7 [8] = assay: Cytotoxicity against human MCF7 cells assessed as inhibition of cell survival at 5 to 15 uM after 72 hrs by MTT assay relative to control; type: functional, cell-based
HEK293 [9] = assay: Cytotoxicity against human HEK293 cells assessed as inhibition of cell survival at 5 to 15 uM after 72 hrs by MTT assay relative to control; type: functional, cell-based
NCI-H460 = assay: Cytotoxicity against human H460 cells assessed as inhibition of cell survival at 5 to 15 uM after 72 hrs by MTT assay relative to control; type: functional, cell-based

| Structure (SMILES) | inhibition at 0.5 µM (MCF7 [1]) [%] | inhibition at 0.5 µM [2] [%] | IC50 [3] [nM] | IC50 (MCF7 [4]) [nM] | inhibition at 0.5 µM (HEK293 [5]) [%] | IC50 (HEK293 [6]) [nM] | IC50 [7] [nM] | inhibition (KB 3-1) | inhibition (MCF7 [8]) | inhibition (HEK293 [9]) | inhibition (NCI-H460) |
| --- | --- | --- | --- | --- | --- | --- | --- | --- | --- | --- | --- |
| CCCCC/C=C\C/C=C\CCCCCCCC(=O)Oc1cc(C(=O)c2cc(OC)c(OC)c(OC)c2)ccc1OC | 20 | 20 | 163 | 181 | 20 | 210 | 176 |  |  |  |  |
| CCCCCCCCCCCCCCCCCC(=O)Oc1ccc(C(=O)c2cc(OC)c(OC)c(OC)c2)cc1OC |  |  | 16900 | 26900 |  | 15600 | 17600 |  |  |  |  |
| COc1cc(C(=O)c2cc(OC)c(OC)c(OC)c2)ccc1O [ISOPHENSTATIN] |  |  | 146 | 199 |  | 196 | 188 |  |  |  |  |
| CCCCCCCCCCCCCCCCCC(=O)Oc1cc(C(=O)c2cc(OC)c(OC)c(OC)c2)ccc1OC |  |  | 2780 | 3350 |  | 2640 | 4700 |  |  |  |  |
| CCCCCCCC/C=C\CCCCCCCC(=O)Oc1cc(C(=O)c2cc(OC)c(OC)c(OC)c2)ccc1OC |  |  | 786 | 943 |  | 950 | 909 |  |  |  |  |
| COc1cc2c(c(OC)c1OC)-c1ccc(OC)c(=O)cc1[C@@H](NC(C)=O)CC2 [COLCHICINE] |  |  | 18 | 19 |  | 9 |  |  |  |  |  |
| CCCCC/C=C\C/C=C\CCCCCCCC(=O)Oc1ccc(C(=O)c2cc(OC)c(OC)c(OC)c2)cc1OC |  |  | 547 | 745 |  | 903 | 867 | Active | Active | Active | Active |
| COc1ccc(C(=O)c2cc(OC)c(OC)c(OC)c2)cc1O [PHENSTATIN] |  |  | 15 | 19 |  | 23 | 20 |  |  |  |  |
| CCCCCCCC/C=C\CCCCCCCC(=O)Oc1ccc(C(=O)c2cc(OC)c(OC)c(OC)c2)cc1OC |  |  | 1720 | 2170 |  | 2360 | 2200 |  |  |  |  |

From ChEMBL document CHEMBL2434821, “New phenstatin-fatty acid conjugates: synthesis and evaluation” (Bioorg Med Chem Lett, 2013)
